Assay results from paper PMC6939882 (Molecular microbiology, 2017).

Assays:
Amy13K ΔCBMa-e = molecular target: T1, Amy13K ΔCBMa-e (Agathobacter rectalis, UniProt A0ABF7PGZ5); assay: isothermal titration calorimetry of hydrolysis; assay type: biochemical; details: 37 °C; only kcat/KM printed
T1 sequence (A0ABF7PGZ5 621-1364 limits assumed): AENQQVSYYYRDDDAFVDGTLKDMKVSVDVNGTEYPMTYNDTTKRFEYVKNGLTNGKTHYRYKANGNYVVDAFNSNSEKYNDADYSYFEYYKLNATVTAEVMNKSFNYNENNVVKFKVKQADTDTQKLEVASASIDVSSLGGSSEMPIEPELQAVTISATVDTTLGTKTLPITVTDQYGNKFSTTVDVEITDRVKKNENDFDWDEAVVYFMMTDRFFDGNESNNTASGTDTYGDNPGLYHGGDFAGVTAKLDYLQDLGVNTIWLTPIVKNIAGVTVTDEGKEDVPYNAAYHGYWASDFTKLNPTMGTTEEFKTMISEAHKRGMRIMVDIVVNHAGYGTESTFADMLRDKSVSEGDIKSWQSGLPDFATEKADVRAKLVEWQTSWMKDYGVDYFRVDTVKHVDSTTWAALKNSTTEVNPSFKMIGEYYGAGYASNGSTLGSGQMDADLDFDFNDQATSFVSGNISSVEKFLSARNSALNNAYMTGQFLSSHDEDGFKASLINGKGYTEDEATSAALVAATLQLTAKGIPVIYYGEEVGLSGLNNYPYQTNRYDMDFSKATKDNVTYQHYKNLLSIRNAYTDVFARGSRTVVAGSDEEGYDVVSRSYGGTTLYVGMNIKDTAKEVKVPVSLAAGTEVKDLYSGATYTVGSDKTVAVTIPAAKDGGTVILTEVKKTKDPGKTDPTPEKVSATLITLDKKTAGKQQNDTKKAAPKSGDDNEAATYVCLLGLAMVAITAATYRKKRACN

Amy13K WT = molecular target: T2, Amy13K WT (Agathobacter rectalis, UniProt A0ABF7PGZ5); assay: isothermal titration calorimetry of hydrolysis; assay type: biochemical; details: 37 °C; only kcat/KM printed
T2 sequence (A0ABF7PGZ5 44-1364): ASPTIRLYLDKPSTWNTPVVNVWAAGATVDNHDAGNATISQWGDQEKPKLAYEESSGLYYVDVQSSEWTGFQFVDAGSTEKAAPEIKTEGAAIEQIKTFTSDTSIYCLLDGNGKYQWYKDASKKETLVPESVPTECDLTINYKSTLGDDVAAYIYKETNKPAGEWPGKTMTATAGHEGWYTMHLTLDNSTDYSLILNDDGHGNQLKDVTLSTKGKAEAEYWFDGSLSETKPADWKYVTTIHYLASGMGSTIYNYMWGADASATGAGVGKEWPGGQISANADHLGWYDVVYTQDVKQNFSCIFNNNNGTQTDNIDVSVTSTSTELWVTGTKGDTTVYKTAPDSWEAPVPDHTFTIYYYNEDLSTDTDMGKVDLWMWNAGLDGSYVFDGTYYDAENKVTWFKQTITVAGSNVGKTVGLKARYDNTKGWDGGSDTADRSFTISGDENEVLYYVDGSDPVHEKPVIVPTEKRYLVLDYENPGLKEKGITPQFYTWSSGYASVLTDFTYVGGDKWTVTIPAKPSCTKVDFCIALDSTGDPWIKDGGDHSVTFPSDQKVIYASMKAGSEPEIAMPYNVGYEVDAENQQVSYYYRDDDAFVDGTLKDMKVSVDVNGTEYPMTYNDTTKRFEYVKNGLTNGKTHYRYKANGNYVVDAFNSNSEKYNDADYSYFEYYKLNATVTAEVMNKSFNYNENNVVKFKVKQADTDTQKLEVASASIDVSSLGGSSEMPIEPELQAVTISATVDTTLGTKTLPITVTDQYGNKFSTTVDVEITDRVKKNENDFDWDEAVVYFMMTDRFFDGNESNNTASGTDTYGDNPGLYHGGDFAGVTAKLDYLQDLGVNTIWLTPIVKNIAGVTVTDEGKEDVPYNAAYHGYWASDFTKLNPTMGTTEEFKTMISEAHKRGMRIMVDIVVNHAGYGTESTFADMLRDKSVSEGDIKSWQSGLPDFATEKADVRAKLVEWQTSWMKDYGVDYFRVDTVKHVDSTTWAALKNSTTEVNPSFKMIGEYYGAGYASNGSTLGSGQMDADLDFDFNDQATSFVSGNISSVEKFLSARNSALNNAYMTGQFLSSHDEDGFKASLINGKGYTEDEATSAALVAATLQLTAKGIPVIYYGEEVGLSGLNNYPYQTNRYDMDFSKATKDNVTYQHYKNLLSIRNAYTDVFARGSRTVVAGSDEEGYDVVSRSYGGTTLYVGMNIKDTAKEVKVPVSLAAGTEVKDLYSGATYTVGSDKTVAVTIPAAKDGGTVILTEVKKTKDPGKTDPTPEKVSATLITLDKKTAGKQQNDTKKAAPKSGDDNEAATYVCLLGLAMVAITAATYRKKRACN

OC[C@H]1O[C@H](O[C@H]2[C@H](O)[C@@H](O)[C@@H](O[C@H]3[C@H](O)[C@@H](O)[C@@H](O[C@H]4[C@H](O)[C@@H](O)[C@@H](O[C@H]5[C@H](O)[C@@H](O)[C@@H](O[C@H]6[C@H](O)[C@@H](O)[C@@H](O[C@H]7[C@H](O)[C@@H](O)C(O)O[C@@H]7CO)O[C@@H]6CO)O[C@@H]5CO)O[C@@H]4CO)O[C@@H]3CO)O[C@@H]2CO)[C@H](O)[C@@H](O)[C@@H]1O (some centres unmarked) [maltoheptaose]
isothermal titration calorimetry of hydrolysis (Amy13K ΔCBMa-e): The catalytic efficiency of the WT and ΔCBMa-e on maltoheptaose are
isothermal titration calorimetry of hydrolysis (Amy13K WT): The catalytic efficiency of the WT and ΔCBMa-e on maltoheptaose are
